In patent US20220040179A1, “USE OF CDK8/19 INHIBITORS FOR TREATMENT OF ESTABLISHED COLON CANCER HEPATIC METASTASIS” (University of South Carolina, priority 2017, published 2022):

Columns and labels:
[1] = system: CT26 cells; assay: splenic injection model, CT26 cells: spleen (primary tumor) and liver (metastatic tumor) weights; assay type: in vivo, mouse; details: 40 mg/kg daily i.p., 16 days, BALB/c mice
Method: To compare the effects of CDK8/19 inhibition on primary and metastatic tumor growth, we used a splenic injection model (Lafreniere and Rosenberg, 1986; Zhang et al., 2009), where tumor cells are injected in the spleen, from where they metastasize into the liver. In the study shown in FIG. 4, 2×10^5 CT26 cells were injected into the spleens of 8 weeks old female BALB/c mice, and mice were treated by daily i.p. injection of Senexin B dichloride (40 mg/kg) in 10 mM citrate buffer, pH6, 150 mM NaCl or with vehicle control (n=9). 1 6 days later, mice were sacrificed and the weights of tumor-containing spleens (primary tumor) and livers (metastatic tumor) were measured.
Mice were sacrificed 16 days after tumor cell inoculation into the spleen and spleens and livers were weighed.

[2] = system: CT26 cells; assay: splenic injection model, CT26 cells: timing of drug administration, liver weights two weeks after inoculation; assay type: in vivo, mouse; details: 50 mg/kg gavage b.i.d.
Method: To determine if the anti-metastatic effects of CDK8/19 inhibition observed in the splenic injection model were due to the prevention of the initial establishment of hepatic metastases or growth inhibition of already-established metastases, we asked whether Senexin B can inhibit metastatic growth in the liver when the drug is administered after the metastases have been established. […] We compared the effects of Senexin B dimaleate on hepatic metastasis, when the drug was administered by gavage at 50 mg/kg doses in CD vehicle, b.i.d. two days prior to splenic inoculation, during the first week after inoculation, during the second week after inoculation, or over the entire two-week period following splenic inoculation of CT26 cells.

[3] = Senexin B serum concentration by LC/MS/MS in mice on medicated diet; assay type: in vivo, mouse
Method: (§1) We have analyzed the survival of mice after splenic injection of 2×10^5 CT26 cells into 8 week old female BALB/c mice, followed by removal of the spleen 1 minute after injection. Mice were sacrificed when paralysis, lack of movement or paleness (due to abdominal hemorrhage) occurred. […] To establish serum drug concentrations associated with therapeutic efficacy in this model, we conducted a similar survival study where Senexin B dimaleate was administered by mixing the drug into mouse food, which provides for sustained drug delivery over time. Senexin B was mixed into food at two concentrations differing approximately 4-fold and designated low-dose and high-dose. Serum samples were collected from treated mice and Senexin B in the serum was measured by a LC/MS/MS assay.

[4] = system: human HCTl 16 colon cancer cells; assay: splenic injection model, human HCT116 cells in athymic nude mice: liver weights; assay type: in vivo; details: 50 mg/kg by gavage b.i.d. in CD vehicle, 7 weeks after inoculation
Method: The splenic injection model was used to test the effect of Senexin B on hepatic metastasis of human HCTl 16 colon cancer cells, which are […] to small-molecule CDK8/19 inhibitors (Koehler et al., 2016; Pelish et al., 2015; Porter et al., 2012). 1×10^6 HCTl 16 cells were injected into the spleens of athymic nude (nu/nu) mice (JAX #002019) mice (female, 8 weeks old), and spleens were removed 1 min later. Mice were treated with Senexin B dimaleate (50 mg/kg by gavage in CD vehicle, b.i.d.) or vehicle control (n=10). 7 weeks after tumor cell inoculation, mice were sacrificed and livers with tumor metastases (FIG. 8A) were collected.

[5] = system: CT26 cells; assay: survival of mice after splenic injection of CT26 cells followed by removal of the spleen; assay type: in vivo, mouse
Method: as §1

[6] = toxicity and body weight in mice receiving Senexin B diet; assay type: in vivo; details: Senexin B diet relative to control diet
Method: as §1

[7] = system: CT26 tumors; assay: primary CT26 tumors implanted subcutaneously in BALB/c mice; assay type: in vivo, mouse; details: unmodified CT26 cells, female BALB/c mice; 50 mg/kg by gavage b.i.d. in CD vehicle vs vehicle
Method: We further investigated the effects of CDK8/19 inhibition or knockdown on the growth of primary CT26 tumors implanted subcutaneously (s.c.), at I xl 0^6 cells, in 8 weeks-old female BALB/c mice (n=I0). FIG. 3A compares the dynamics of tumor growth and final tumor weights for CT26 cells transduced with insert-free pLK0.1 (vector control) or shCDK8-1. […] FIG. 3B compares s.c. tumor growth of unmodified CT26 cells in mice treated with Senexin B dimaleate, administered by gavage at 50 mg/kg doses (weight doses calculated for Senexin B dimaleate rather than free Senexin B) in 6.25% 2-Hydroxypropyl-cyclodextrin, I % Dextrose buffer (CD vehicle), b.i.d. or with the vehicle control.

[8] = system: CT26 colon cancer cells; assay: in vitro growth of CT26 cells; assay type: cell-based, murine; details: 1 uM, 5-day assay
Excerpt: To investigate the role of CDK8/19 in colon cancer growth and metastasis, we used murine CT26 colon cancer cell line, derived from a BALB/c mouse following chemical carcinogenesis (Griswold and Corbett, 1975). Cells were propagated in RPMI1640 medium with 10% Fetal Bovine Serum.

CN1CCN(C(=O)c2ccc3cc(CCNc4ncnc5ccc(C#N)cc45)ccc3c2)CC1.Cl.Cl [Senexin B dichloride]
metastatic tumor growth in the liver (liver weight, tumor area) [1]: strongly inhibited metastatic tumor growth in the liver
primary tumor growth in the spleen (spleen weight) [1]: no effect on the primary tumor growth in the spleen

CN1CCN(C(=O)c2ccc3cc(CCNc4ncnc5ccc(C#N)cc45)ccc3c2)CC1.O=C(O)/C=C\C(=O)O.O=C(O)/C=C\C(=O)O [Senexin B dimaleate]
liver metastasis (liver weight) ([2]; administered two days prior to splenic inoculation): no effect on liver metastasis
metastatic growth in the liver (liver weight) ([2]; both weeks after inoculation): equally efficient in suppressing metastatic growth in the liver
liver metastasis (liver weight) ([2]; during the first week after inoculation): decreased the liver weights but this effect did not reach statistical significance
metastatic growth in the liver (liver weight) ([2]; only the second week after inoculation): equally efficient in suppressing metastatic growth in the liver
average serum concentration ([3]; high-dose diet): 206 nM
average serum concentration ([3]; low-dose diet): 58 nM
hepatic tumor growth (liver weights) [4]: strong inhibition of hepatic tumor growth
survival (Kaplan-Meyer) ([5]; combination: mice inoculated with shCDK8-1 cells and treated with Senexin B, 50 mg/kg gavage b.i.d.): increased the survival time even further
survival (Kaplan-Meyer), efficiency of diet ([5]; low-dose diet (drug mixed into food) compared with high-dose diet): at least as efficient as the high-dose diet
survival (Kaplan-Meyer) ([5]; mice inoculated with vector control cells, 50 mg/kg gavage b.i.d. in CD vehicle): prolonged the survival
toxicity [6]: no apparent toxicity
mouse body weight ([6]; days 8 and 15 after surgery): no significant change in mouse body weight
s.c. tumor growth [7]: not statistically significant

CN1CCN(C(=O)c2ccc3cc(CCNc4ncnc5ccc(C#N)cc45)ccc3c2)CC1 [Senexin B]
in vitro growth inhibition of CT26 cells [8]: no significant growth inhibition
